Assay results from US20240041986A1, “METHODS AND COMPOSITIONS FOR THE TREATMENT AND PREVENTION OF TYPE 1 DIABETES” (Dr. Mary Morris & Associates, LLC, priority 2020, published 2024).

Legend:
Assay type in all cases: in vivo, mouse
[1] = system: NOD mice; assay: Incidence and time to onset of Type 1 diabetes (hyperglycemia, blood glucose above 300 mg/dL) in NOD mice after sublingual treatment; details: for Median survival: control 21.00; for Median Survival (i.e., time to Type 1 diabetes onset): sublingual 87 μg Humulin, control 21 weeks
Method: Sublingual formulation. A commercial high dose Humulin® insulin solution (Humulin® R U-500) containing 500 units of insulin per mL is mixed with an additional equal volume (1:1 (vol:vol)) 100% glycerin. Each dose contains 10 μL of the Humulin®-glycerin solution, which contains 2.5 units (approximately 87 micrograms) of insulin in a solution having a final concentration of ˜52 vol. % glycerin.
NOD mice. Non-obese diabetic (NOD) mice, as described by Makino (Adv. Immunol. 51:285-322 (1992)), are used in the studies described herein. NOD mice provide a widely accepted animal model for the spontaneous development of Type 1 diabetes. NOD mice develop insulitis as a result of leukocyte infiltration into the pancreatic islet, which in turn leads to the destruction of pancreatic islets and a Type 1 diabetic phenotype.
Five-week old female NOD mice were randomly assigned to three groups: (1) control group (1:1 glycerin/phosphate buffered saline (PBS)); (2) insulin-related peptide treatment (Humulin®) started at six weeks of age; or (3) insulin-related peptide treatment (Humulin®) started at ten weeks of age. Mice in the treatment groups (2) and (3) were sublingually administered 2.5 units/87 μg of Humulin® R insulin (10 μL of solution) twice per day […] from age 5 weeks 5 until 8 weeks of age and then once per day, five days per week up to 30 weeks of age. Blood glucose measurements were taken once per week up to 20 weeks of age, and then twice per week thereafter. Mice were classified as diabetic after three consecutive blood glucose readings above 300 mg/dL (hyperglycemic).
Female NOD mice were randomly assigned to two groups: (1) control group (50% glycerin/phosphate buffered saline (PBS)); or (2) insulin-related peptide treatment (Humulin® in 50% glycerin solution; Humulin® sublingual immunotherapy (“Humulin SLIT”)) started at five weeks of age. Mice in the treatment group (2) were sublingually administered 87 μg of Humulin® once per day, five days per week starting at five weeks of age up to 30 weeks of age. Blood glucose measurements were taken once per week up to 13 weeks of age, and then twice per week thereafter. Mice were classified as diabetic after three consecutive blood glucose readings above 300 mg/dL (hyperglycemic). […]

[2] = system: anti-insulin antibodies; assay: Anti-insulin antibody ELISA of serum from sublingually treated NOD mice
Method: Autoantibody titer assay. To detect anti-insulin antibodies 96-well ELISA plates were coated with 1 μg/well of Humulin® overnight at 4° C. and were blocked with 1% BSA in PBS. Sera were divided into two equal aliquots that were incubated with or without 10 μg/ml Humulin® on ice for 1 h. The sera were then added to Humulin® coated plates for incubation overnight at 4° C. After extensive washes, the plates were incubated with HRP-conjugated goat anti-mouse IgG The assay is described in Wan et al., J Exp Med. 2016 May 30; 213(6): 967-978.
Five-week old female NOD mice were randomly assigned to two groups: (1) control group (50% PBS/glycerin); and (2) insulin-related peptide treatment (Humulin® insulin) started at six weeks of age. Mice in the treatment group (2) were sublingually administered 87 μg of Humulin® in 50% glycerin solution twice per day, five days per week, up to 30 weeks of age. Serum samples were collected from control and Humulin® SLIT treated NOD mice at 14 weeks of age and assessed for levels of anti-insulin antibody titer (i.e., after sublingual administration of Humulin® for 8 weeks) and stored at −80 C until tested for anti-insulin antibodies in the ELISA described above. The level of anti-insulin antibodies in the samples was determined by ELISA using the assay described in Wan et al., J Exp Med. 2016 May 30; 213(6): 967-978 and the results are shown in FIG. 2. […]

[3] = system: C-peptide; assay: Serum C-peptide ELISA (ALPCO) in sublingually treated NOD mice; details: NOD mice fasted overnight, Humulin started at 5 weeks of age, serum at 6 and 19 weeks of age (FIG. 5)
Method: Serum C-peptide assay. The mouse C-peptide ELISA (ALPCO), which quantifies C-peptide protein products of mouse I and mouse II proinsulin genes, was used. Briefly, mice are fasted overnight and blood is collected by inserting a needle into the submandibular vein and collecting ˜0.2 mL of blood. The blood is centrifuged for 10 minutes at 3000×g in a refrigerated centrifuge, and serum is collected and stored −80° C. The ALPCO C-peptide ELISA is a commercially available FDA Registered For In Vitro Diagnostic Use tool for the quantification of […] C-peptide in serum and plasma samples.
Female NOD mice were randomly assigned to two groups according to Example 3. C-peptide levels in serum were determined by ALPCO C-peptide ELISA from serum samples collected at 6 and 19 weeks of age in mice that were fasted overnight.

[4] = Humulin started at 5 weeks of age (FIG. 3)
[5] = Humulin started at 5 weeks of age vs control (FIG. 3)
[6] = Humulin started at 6 weeks of age (FIG. 1A)
[7] = Humulin started at 6 weeks of age vs control (FIG. 1A)
[8] = Humulin started at 10 weeks of age (FIG. 1B)
[9] = Humulin started at 10 weeks of age vs control (FIG. 1B)
[10] = combined FIG. 1A and FIG. 3 (FIG. 6)
[11] = combined FIG. 1A and FIG. 3 vs control (FIG. 6)

## Humulin: commercial recombinant human insulin solution (Humulin® R U-500) mixed 1:1 with glycerin, sublingual formulation, 87 μg per 10 μL dose
[1]; [4]
  Ratio of median survival (Control / Humulin): 0.7119
  Reciprocal of ratio of median survival: 1.405
[1]; [5]
  Are the survival curves sig different? Gehan-Breslow-Wilcoxon test: Yes
  Are the survival curves sig different? Log-rank (Mantel-Cox) test: Yes
[1]; [6]
  Ratio of median survival (Control / Humulin): 0.778
  Reciprocal of ratio of median survival: 1.29
[1]; [7]
  Are the survival curves significantly different? Gehan-Breslow-Wilcoxon test: Yes
  Are the survival curves significantly different? Log-rank (Mantel-Cox) test: Yes
[1]; [8]
  Ratio of median survival (Control / Humulin): 0.8750
  Reciprocal of ratio of median survival: 1.14
[1]; [9]
  Are the survival curves significantly different? Gehan-Breslow-Wilcoxon test: No
  Are the survival curves significantly different? Log-rank (Mantel-Cox) test: No
[1]; NOD mice, sublingual Humulin started at five weeks of age (FIG. 3)
  incidence (% diabetic) and onset time (weeks) of Type 1 diabetes as compared to the control group: reduced
[1]; NOD mice, sublingual Humulin started at six weeks of age (FIG. 1A)
  incidence (% T1D Onset) and onset time (weeks) of Type 1 diabetes as compared to the control group: significantly reduced
[1]; [10]
  Ratio of median survival (Control / Humulin): 0.8077
  Reciprocal of ratio of median survival: 1.238
[1]; [11]
  Are the survival curves sig different? Gehan-Breslow-Wilcoxon test: Yes
  Are the survival curves sig different? Log-rank (Mantel-Cox) test: Yes
[1]; combined results of FIG. 1A and FIG. 3, Humulin started at 5 or 6 weeks of age (FIG. 6, time in Weeks)
  Median survival: 26.00
[1]; female NOD mice, sublingual 87 μg Humulin once per day, five days per week, started at 5 weeks of age (FIG. 3, time in Weeks)
  Median survival: 29.50
[1]; female NOD mice, started at 6 weeks of age (FIG. 1A)
  Median Survival (i.e., time to Type 1 diabetes onset): 27 weeks
[1]; female NOD mice, started at 10 weeks of age (FIG. 1B)
  Median Survival (i.e., time to Type 1 diabetes onset): 24 weeks
[2]; 87 μg Humulin started at five weeks of age, serum at 19 weeks of age (FIG. 4)
  development of anti-insulin antibodies as compared to the control group: significantly reduced
[2]; 87 μg Humulin started at six weeks of age, serum at 14 weeks of age (FIG. 2)
  development of anti-insulin antibodies as compared to the control group: significantly reduced
[3]
  serum C-peptide levels as compared to untreated control NOD mice: either a maintenance or enhancement
